In one assay the test system is VZV. The assay can be described thus: VZV plaque reduction antiviral assay in WI-38 cell monolayers. Format: cell-based, varicella zoster virus. To be noted: Human alphaherpesvirus 3; VZV strain ELLEN; WI-38 cells; 6-7 days at 37° C.; at least 50% plaque reduction; read-out: ID50 (the source's name). The method, then:
(§1) Assays were performed in cell culture systems to determine the concentrations of compounds that are effective in preventing several kinds of viral infections.
(§2) HSV-1 (herpes simplex virus type 1, strain Schooler), HSV-2 (herpes simplex virus type 2, strain 186), VZV (varicella zoster virus, strain ELLEN), HCMV (human cytomegalovirus, strain AD 169), MuLV (murine leukemia virus, strain CAS), HIV (human immunodeficiency virus, strain HTLV-IIIB).
(§3) HSV-1, HSV-2, HCMV, and VZV antiviral assays:
(§4) Virus was adsorbed to WI-38 cell culture monolayers in 6 well culture plates (Costar, Cambridge, Mass.) for 1 hour prior to addition of maintenance medium containing duplicate dilutions of the test compound. Inhibition of plaque development was evaluated on fixed and stained monolayers after 4 days incubation at 37° C. for HSV-1 and HSV-2 and after 6-7 days incubation at 37° C. for HCMV and VZV. ID50 values were determined from the drug concentration which conferred at least a 50% plaque reduction compared to virus controls.

A further assay concerns HSV-1. Kind of assay: HSV-1 plaque reduction antiviral assay in WI-38 cell monolayers. Format: cell-based, herpes simplex virus type 1. The conditions noted are these: Human alphaherpesvirus 1, 96 h; HSV-1 strain Schooler; WI-38 cells; 4 days at 37° C.; at least 50% plaque reduction; read-out: ID50 (the source's name). The method, then:
as §1, §2, §3, §4

Another assay deals with HCMV. The assay can be described thus: HCMV plaque reduction antiviral assay in WI-38 cell monolayers. Format: cell-based, human cytomegalovirus. To be noted: Human betaherpesvirus 5; HCMV strain AD 169; WI-38 cells; 6-7 days at 37° C.; at least 50% plaque reduction; read-out: ID50 (the source's name). Here is the method: as §1, §2, §3, §4
The next assay deals with HSV-2. Kind of assay: HSV-2 plaque reduction antiviral assay in WI-38 cell monolayers. Format: cell-based, herpes simplex virus type 2, strain 186. The method, then: as §1, §2, §3, §4
The subject of the next assay is HIV. The assay can be described thus: HIV antiviral assay, cytopathic effect in CEM cells (XTT-PMS). Format: cell-based. The conditions noted are these: Human immunodeficiency virus 1, CCRF-CEM, 168 h, HIV strain HTLV-IIIB, 7 days at 37° C., inhibits CPE by 50%, read-out: ID50 (the source's name). The method, then:
as §1, §2
HIV antiviral assay: Suspensions of CEM(Nara and Fischinger, Nature, 332:469, 1988) cells were infected at a multiplicity of infection (e.g. virus/cell) of 0.12 with HIV (strain HTLV-III B). […] Following incubation, viable cell numbers were counted in each well using a colorimetric assay following incubation of cells with XTT-PMS solution (XTT tetrazolium reagent plus phenazine methosulfate PMS).
Percent reduction of vital cytopathic effect (CPE) in drug treated compared to untreated virus infected cells, and percent reduction of cell viability in drug treated uninfected cells compared to untreated controls were calculated and plotted versus the drug concentrations tested. […]

The next assay concerns MuLV. Kind of assay: MuLV antiviral assay, syncytial plaques (SC-1 cells, XC cell overlay). To be noted: Murine leukemia virus, SC1, MuLV strain CAS, read-out: ID50 (the source's name). Format: cell-based. The method, then:
as §1, §2
Antiviral assays using MuLV were performed with some modification, as described by Rowe et al. and Shannon et al., SC-1 cells were planted at approximately 2×10^5 cell per well in 6 well plates. After overnight incubation at 37° C., the cell cultures were sensitized with DEAE-Dextran for one hour at 37° C., rinsed and inoculated with MuLV. Cultures were re-fed with growth medium containing different concentrations of the test compound. After three more days at 37° C., cultures were re-fed with fresh medium plus test compounds and incubated at 37° C. for an additional 3 days. Cultures were then washed to remove medium, ultraviolet light irradiated, and planted with approximately 5×10^5 XC cells per well in cell growth medium containing the appropriate concentration of the test compound. […] Finally the cultures were rinsed, stained and syncytial plaques were counted.

Where [1] appears, read: Human alphaherpesvirus 2, WI-38, 96 h, read-out: ID50.
[2] abbreviates: Human alphaherpesvirus 2, 96 h, HSV-2 strain 186, WI-38 cells, 4 days at 37° C., at least 50% plaque reduction, read-out: ID50 (the source's name).

Structures are written as SMILES. Where two headings read alike, the source gives them in different places.

As for `O=c1[nH]c(=O)n([C@@H]2C[C@H](CO)[C@H]2CO)cc1I` (relative stereo) [(1α,2β,3α)-1-[2,3-Bis(hydroxymethyl)cyclobutyl]-5-iodo-2,4(1H,3H)-pyrimidinedione], the IC50 with VZV is 14 to 28 µM; in the assay with HSV-1, 6 to 14 µM; in the assay on HCMV it was above 284 µM; in the assay with HSV-2 (setting [1]), above 284 µM.
As for `Nc1ncnc2c1ncn2[C@@H]1C[C@H](CO)[C@H]1CO` (relative stereo) [(1α,2β,3α)-3-(6-Amino-9H-purin-9-yl)-1,2-cyclobutanedimethanol], the IC50 was 6.8 µM in the assay with HIV; 0.8 to 2 µM in the assay with VZV; 8 µM in the assay with HSV-1; 0.8 µM with HCMV; 4 to 8 µM in the assay with HSV-2 (setting [2]).
Take `Nc1ccn([C@@H]2C[C@H](CO)[C@H]2CO)c(=O)n1` (relative stereo) [(1α,2β,3α)-4-Amino-1-[2,3-bis(hydroxymethyl)cyclobutyl]-2(1H)-pyrimidinone]: the IC50 was 22 µM with VZV, 444 µM with HSV-1, 22 to 44 µM in the assay with HCMV and 444 µM in the assay with HSV-2 (setting [2]).
Take `Nc1nc2c(nnn2[C@@H]2C[C@H](CO)[C@H]2CO)c(=O)[nH]1` (relative stereo) [(1α,2β,3α)-5-Amino-3-[2,3-bis(hydroxymethyl)cyclobutyl]-3,6-dihydro-7H-1,2,3-triazolo[4,5-d]pyrimidin-7-one]: the IC50 in the assay with VZV is 3.8 to 38 µM; in the assay on HSV-1 it was 7.5 µM; in the assay on HCMV, 376 µM; with HSV-2 (setting [2]), 7.5 µM.
As for `Nc1nc2c(ncn2[C@@H]2C[C@H](CO)[C@H]2CO)c(=O)[nH]1` (relative stereo) [(1α,2β,3α)-9-[2,3-Bis(hydroxymethyl)cyclobutyl]guanine], the IC50 is 3.8 µM in the assay on MuLV; 30 µM in the assay on HIV; 0.2 µM with VZV; 0.08 to 0.2 µM with HSV-1; 3.8 µM in the assay on HCMV; 0.04 to 0.08 µM in the assay with HSV-2 (setting [2]).
For `O=c1[nH]c(=O)n([C@@H]2C[C@H](CO)[C@H]2CO)cc1/C=C/Br` (relative stereo) [[1α(E),2β,3α]-1-[2,3-Bis(hydroxymethyl)cyclobutyl]-5-(2-bromoethenyl)-2,4(1H,3H)pyrimidinedione], the IC50 was 0.03 to 0.06 µM in the assay with VZV, 10 to 30 µM with HSV-1, above 302 µM in the assay with HCMV and above 302 µM with HSV-2 (setting [1]).

The values are drawn from US5723609A, “Bis (hydroxymethyl) cyclobutyl purines” (E. R. Squibb & Sons, Inc., priority 1989, dated 1998).
